In brackets after ≈: the same amount, converted by molar mass. Several values for one entry are separate records, joined by “and”; a condition that tells them apart may be missing. Equal entries are not always repeated. Where two headings read alike, the source gives them in different places.
Assays:
[1] = biological target: T1, XcMetRS (WT) (Xanthomonas citri pv. citri, UniProt Q8PMP0); format: binding; set-up: His tag with TEV site (from pET28-TEV vector) (N); made in house; host or cells: E. coli BL21(DE3)
Description: All wells contained 2% DMSO used to prepare stock solutions of REP3123 and REP8839. Protein unfolding was monitored on a 7500 Real-Time PCR System (Applied Biosystems) cycler by measuring fluorescence (λEmission = 580 nm) during 71 cycles starting at 25 °C, with a one-degree Celsius increment at each cycle. Experimental data points were normalized and adjusted to the equation y = ymin + ((ymax − ymin)/(1 + e^(Tm − T)/S)), where ymax and ymin are normalized fluorescence values, Tm is the melting temperature, T is the temperature, and S is the slope.

[2] = biological target: T1, XcMetRS (WT); assay: XcMetRS enzyme kinetic assay (coupled fluorometric AMP/resorufin assay); format: biochemical; set-up: His tag with TEV site (from pET28-TEV vector) (N); made in house; host or cells: E. coli BL21(DE3)
Excerpt: Similarly, vmax^app, K’, and Hill slope (h) were obtained for ATP using the equation v = (vmax^app x [S]^h)/(K’ + [S]^h). The catalytic rate constant (kcat) was estimated by the equation kcat = vmax^app/Et, where Et is the enzyme concentration in the assay.

[3] = test system: X. citri strain 306; assay: Antibiogram, agar disc-diffusion assay; settings: X. citri strain 306, LBON-agar, 24 h at 28 °C
Description: (§1) X. citri 306 was cultivated on LBON medium (10 g/l tryptone; 5 g/l yeast extract; pH 7.0) at 28 °C. The susceptibility to distinct antibiotics was evaluated using the disc-diffusion method. Briefly, a bacterial suspension was prepared in sterile saline solution (0.85% NaCl) to an optical density of 0.1 (approximately 1.5 × 10^8 CFU/ml) and used to inoculate the surface of an LBON-agar plate (1.7% agar; 150 × 15 mm Petri dish; 55 ml/dish). Antibiotic discs were applied 15 min after inoculum, and after incubation for 24 h at 28 °C, images were recorded with a camera. The minimum inhibitory concentration was obtained through broth microdilution method. These assays were performed with eight replicates for each compound concentration. Serial 2-fold dilutions of compounds were prepared in DMSO and 1 μl transferred to sterile 96-well assay plates containing 49 μl of the culture media (LBON). Then, 50 μl of a bacterial suspension (1 × 10^6 CFU/ml) was added to each well. Plates were incubated at 28 °C for 24 h before addition of 10 μl of resazurin 0.02%. After a new incubation (up to 4 h), the fluorescence (λExc/Em = 570–615 nm) was measured using a plate reader (CLARIOstar, BMG LabTech). Blanks were prepared with culture media. Positive and negative controls were prepared with DMSO and tetracycline (10 μg/ml).

[4] = test system: X. citri 306; assay: X. citri growth inhibition, broth microdilution with resazurin; settings: for MIC (minimum inhibitory concentration): X. citri 306, LBON, 28 °C, 24 h, at least 90% growth inhibition; for EC50 / MIC: Xanthomonas citri, 306, 24 h; for EC50: read-out: EC50 (growth inhibition); for MIC: read-out: MIC (minimum inhibitory concentration)
Description: as §1

[5] = biological target: coupled enzyme system (ScAMD, CjIMPDH, diaphorase); assay: Control: inhibition of the coupled enzyme system used to detect AMP production; settings: read-out: IC50 on coupled enzyme system, without XcMetRS step
Description: Inhibition studies using the XcMetRS-ScAMD-CjIMPDH-diaphorase–coupled assay (Fig. S2) were performed at various concentrations (half-log serial dilutions starting at 100 μM) of the inhibitors in anhydrous dimethyl sulfoxide (DMSO). Assays were performed at 25 °C in black 384-well microplates in 25-μl final volume in 0.1 M Tris HCl, pH 7.5, 0.15 M KCl, 10 mM MgCl2, and 0.01% Triton X-100.
Values correspond to measurements of four independent experiments and error bars denote standard deviations.

[6] = biological target: T1, XcMetRS (WT)
Description: Inhibition studies using the XcMetRS-ScAMD-CjIMPDH-diaphorase–coupled assay (Fig. S2) were performed at various concentrations (half-log serial dilutions starting at 100 μM) of the inhibitors in anhydrous dimethyl sulfoxide (DMSO). Assays were performed at 25 °C in black 384-well microplates in 25-μl final volume in 0.1 M Tris HCl, pH 7.5, 0.15 M KCl, 10 mM MgCl2, and 0.01% Triton X-100. […] Plots were prepared in GraphPad Prism.

[7] = biological target: T2, XcMetRS (Xanthomonas citri pv. citri, UniProt Q8PMP0); assay: Isothermal titration calorimetry (ITC); format: binding; settings: for Kd: 20 °C
T2 construct: His tag with TEV site (from pET28-TEV vector) (N); made in house; host or cells: E. coli BL21(DE3)
Description: ITC measurements were performed on a MicroCal VP-ITC calorimeter equipped with a VPViewer2000 software for data acquisition at the Spectroscopy and Calorimetry Lab facility (LEC) from the Brazilian Bioscience National Laboratory/Brazilian Centre for Research in Energy and Materials (LNBio/CNPEM). Purified XcMetRS (10 μM) was titrated against the ligands in 0.1 M Hepes, pH 7.5, containing 0.3 M NaCl, 10 mM MgCl2, 5% glycerol in the absence or presence of AMP or ATP at a 5 mM final concentration. To avoid nucleotide dilution, AMP/ATP was added to both ligand and receptor solutions. The ligands were added to the protein solutions kept in a 2-ml experimental cell using a titration syringe. The reactions were performed at 20 °C under agitation (200 rpm), starting with a first injection of 2 μl of ligand solution (200 μM) during 4 s, followed by 27 injections of 10 μl with 200-s intervals between injections. Titration results were corrected for ligand dilution, and all the data were analyzed using Origin7.0 software.

T2 sequence (Q8PMP0 whole entry): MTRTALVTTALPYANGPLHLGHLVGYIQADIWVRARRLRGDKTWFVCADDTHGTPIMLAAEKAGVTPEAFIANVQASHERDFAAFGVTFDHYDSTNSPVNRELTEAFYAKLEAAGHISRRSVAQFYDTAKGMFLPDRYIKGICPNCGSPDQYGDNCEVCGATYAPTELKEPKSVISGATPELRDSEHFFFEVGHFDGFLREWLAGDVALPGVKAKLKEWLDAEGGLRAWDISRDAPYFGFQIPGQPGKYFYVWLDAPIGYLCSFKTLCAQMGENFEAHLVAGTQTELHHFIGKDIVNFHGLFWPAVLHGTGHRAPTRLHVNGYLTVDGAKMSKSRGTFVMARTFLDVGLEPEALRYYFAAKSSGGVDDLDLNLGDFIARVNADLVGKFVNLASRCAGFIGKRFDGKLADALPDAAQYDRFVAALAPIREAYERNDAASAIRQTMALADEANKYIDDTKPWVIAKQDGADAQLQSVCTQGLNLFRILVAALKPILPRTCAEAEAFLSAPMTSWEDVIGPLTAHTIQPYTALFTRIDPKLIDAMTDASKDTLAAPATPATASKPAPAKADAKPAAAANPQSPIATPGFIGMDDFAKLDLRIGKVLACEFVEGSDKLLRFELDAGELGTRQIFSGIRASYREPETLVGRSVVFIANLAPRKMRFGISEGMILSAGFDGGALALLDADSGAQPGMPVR
T1 sequence (Q8PMP0 whole entry): as above

`Nc1ncnc2c1ncn2[C@@H]1O[C@H](COP(=O)(O)OP(=O)(O)OP(=O)(O)O)[C@@H](O)[C@H]1O` [ATP] was tested, and the Tm ([1]; ligand 5 mM) was 51.3 ^oC, the Tm ([1]; ligand 5 mM, listed as ATP:Mg) was 51,3 ± 0,3 ^oC and the Tm shift ([1]; ligand alone) was 3.0 °C. The kcat ([2]; ATP as varied substrate) was 0.33 ± 0.005 s⁻¹, the “h (Hill slope)” value ([2]; ATP varied) was 3.3 and the “K’” value ([2]; ATP varied, L-Met 200 μM) was 0.95 ± 0.08 mM.
In the case of `C[C@H]1[C@H](NC(=O)/C(=N\OC(C)(C)C(=O)O)c2csc(N)n2)C(=O)N1S(=O)(=O)O` [Aztreonam], the “susceptibility phenotype of X. citri in antibiogram” value (shortened to “susceptibility phenotype”) [3] is reported as “resistant”.
With `CSCC[C@H](N)C(=O)O` [L-Met, L-methionine] the Tm ([1]; ligand 5 mM) was 55,9 ± 0,2 ^oC and the kcat ([2]; L-Met as varied substrate) was 0.2062 ± 0.00467 s⁻¹.
For `O=c1cc(NCCCN[C@@H]2CCOc3c(Br)cc(Br)cc32)[nH]c2ccsc12` [REP3123], the Tm ([1]; ligand 25 µM) was 47,9 ± 0,1 ^oC, the Tm ([1]; ligand + ATP:Mg) was 50,7 ± 0,1 ^oC and the “MIC (minimum inhibitory concentration)” value [4] was over 128 µg/mL. The EC50 [4] was 60.5 ± 1 µg/mL (≈ 118 µM), the MIC [4] was over 128 µg/mL and the IC50 [5] was 26400 nM.
For `C=C(F)c1sc(CNCCCNc2cc(O)c3ccccc3n2)c(C)c1Br` [REP8839], the IC50 [6] was 20800 ± 6500 nM, the Tm ([1]; ligand 25 µM) was 50,6 ± 0,1 ^oC and the Tm ([1]; ligand + ATP:Mg) was 52,8 ± 0,1 ^oC. The “MIC (minimum inhibitory concentration)” value [4] was 64 µg/mL (≈ 142 µM), the EC50 [4] was 25.5 ± 1 µg/mL (≈ 56.6 µM) and the MIC [4] was 64 µg/mL (≈ 142 µM). The Kd ([7]; in the presence of AMP (5 mM)) was 630 nM and 600 nM, the Kd ([7]; in the presence of ATP (5 mM)) was 1370 nM and 1400 nM and the KD ([7]; in the absence of nucleotides) was “no KD for REP8839 could be measured”.
In the case of `CC1(C)S[C@@H]2[C@H](NC(=O)[C@H](N)c3ccc(O)cc3)C(=O)N2[C@H]1C(=O)O` [amoxicillin], the “susceptibility phenotype” value [3] is reported as “resistant”.
`CC1(C)S[C@@H]2[C@H](NC(=O)[C@H](N)c3ccccc3)C(=O)N2[C@H]1C(=O)O` [ampicillin] was tested, and the “susceptibility phenotype” value [3] was “resistant”.
With `N[C@@H](C(=O)N[C@@H]1C(=O)N2C(C(=O)O)=C(Cl)CS[C@H]12)c1ccccc1` [cefaclor] the “susceptibility phenotype” value [3] was “resistant”.
`CO/N=C(\C(=O)N[C@@H]1C(=O)N2C(C(=O)[O-])=C(C[N+]3(C)CCCC3)CS[C@H]12)c1csc(N)n1` [cefepime] was tested, and the “susceptibility phenotype” value [3] was “resistant”.
With `CO/N=C(\C(=O)N[C@@H]1C(=O)N2C(C(=O)O)=C(COC(C)=O)CS[C@H]12)c1csc(N)n1` [cefotaxime] the “susceptibility phenotype” value [3] was “resistant”.
For `CO[C@@]1(NC(=O)Cc2cccs2)C(=O)N2C(C(=O)O)=C(COC(N)=O)CS[C@@H]21` [cefoxitin], the “susceptibility phenotype” value [3] was “resistant”.
`CC(C)(O/N=C(\C(=O)N[C@@H]1C(=O)N2C(C(=O)[O-])=C(C[n+]3ccccc3)CS[C@H]12)c1csc(N)n1)C(=O)O` [ceftazidime] was tested, and the “susceptibility phenotype” value [3] was “resistant”.
With `CO/N=C(\C(=O)N[C@@H]1C(=O)N2C(C(=O)O)=C(CSc3nc(=O)c(=O)[nH]n3C)CS[C@H]12)c1csc(N)n1` [ceftriaxone] the “susceptibility phenotype” value [3] was “resistant”.
In the case of `CC(=O)OCC1=C(C(=O)O)N2C(=O)[C@@H](NC(=O)Cc3cccs3)[C@H]2SC1` [cephalothin], the “susceptibility phenotype” value [3] is reported as “resistant”.
In the case of `C[C@@H](O)[C@H]1C(=O)N2C(C(=O)O)=C(SCCN=CN)C[C@H]12` [imipenem], the “susceptibility phenotype” value [3] is reported as “resistant”.
For `O=C1CN(/N=C/c2ccc([N+](=O)[O-])o2)C(=O)N1` [nitrofurantoin], the “susceptibility phenotype” value [3] was “resistant”.
For `NC[C@H]1O[C@H](O[C@H]2[C@H](O)[C@@H](O[C@H]3O[C@H](CO)[C@@H](O)[C@H](N)[C@H]3O)[C@H](N)C[C@@H]2N)[C@H](N)C[C@@H]1O` [tobramycin], the “susceptibility phenotype” value [3] was “close to breakpoint values considered for a resistant phenotype”.
In the case of neomycin, the “susceptibility phenotype” value [3] is reported as “close to breakpoint values considered for a resistant phenotype”.

Source: paper PMC8165550, “Molecular basis for diaryldiamine selectivity and competition with tRNA in a type 2 methionyl-tRNA synthetase from a Gram-negative bacterium” (The Journal of Biological Chemistry, 2021)
